Assay results published in patent US20150105252A1, “SUBSTITUTED PYRAZOLES AS HERBICIDES” (E I DU PONT DE NEMOURS AND COMPANY, priority 2013, published 2015).

Key:
barnyardgrass [1] = experiment: Test B flood; assay type: in vivo, Echinochloa crus-galli; conditions: 250 g ai/ha, visual rating on 0 to 100 scale (0 no effect, 100 complete control), 13 to 15 days
How it was run: (§1)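 Plants were grown to the 2-leaf stage, then pots were flooded to 3 cm above the soil and compounds were applied directly into the paddy water. Water depth was held for the whole test; after 13 to 15 days in a greenhouse, injury was visually rated against untreated controls (0 = no effect, 100 = complete control).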

morningglory [2] = experiment: Test A preemergence; assay type: in vivo, Ipomoea spp.; conditions: preemergence; for Morningglory plant response rating (0 to 100 scale): 125 g ai/ha, visual injury approx. 10 days after treatment; for Morningglory plant response rating: 500 g ai/ha, visual injury after approx. 10 days, 0 to 100 scale (0 no effect, 100 complete control)
How it was run: (§2)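 Seeds were sown in a loam soil–sand blend and given a directed soil spray preemergence; postemergence plants at 2–10 cm, one- to two-leaf stage, were sprayed with compound in non-phytotoxic solvent with surfactant. After about 10 days in a greenhouse, injury was visually rated against untreated controls (0 = no effect, 100 = complete control).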

foxtail, giant [3] = experiment: Test A preemergence; assay type: in vivo, Setaria faberii; conditions: preemergence; for Foxtail, Giant plant response rating (0 to 100 scale): 125 g ai/ha, visual injury approx. 10 days after treatment; for Foxtail, Giant plant response rating: 500 g ai/ha, visual injury after approx. 10 days, 0 to 100 scale (0 no effect, 100 complete control)
How it was run: as §2

ducksalad = experiment: Test B flood; assay type: in vivo, Heteranthera limosa; conditions: 250 g ai/ha, visual rating on 0 to 100 scale (0 no effect, 100 complete control), 13 to 15 days
How it was run: as §1

foxtail, giant [4] = experiment: Test A postemergence; assay type: in vivo, Setaria faberii
How it was run: as §2

barnyardgrass [5] = experiment: Test A preemergence; assay type: in vivo, Echinochloa crus-galli; conditions: preemergence
How it was run: as §2

corn [6] = experiment: Test A preemergence; assay type: in vivo, Zea mays; conditions: preemergence; for Corn plant response rating (0 to 100 scale): 125 g ai/ha, visual injury approx. 10 days after treatment; for Corn plant response rating: 500 g ai/ha, visual injury after approx. 10 days, 0 to 100 scale (0 no effect, 100 complete control)
How it was run: as §2

rice = experiment: Test B flood; assay type: in vivo, Oryza sativa; conditions: 250 g ai/ha, visual rating on 0 to 100 scale (0 no effect, 100 complete control), 13 to 15 days
How it was run: as §1

velvetleaf [7] = experiment: Test A preemergence; assay type: in vivo, Abutilon theophrasti; conditions: preemergence; for Velvetleaf plant response rating (0 to 100 scale): 125 g ai/ha, visual injury approx. 10 days after treatment; for Velvetleaf plant response rating: 500 g ai/ha, visual injury after approx. 10 days, 0 to 100 scale (0 no effect, 100 complete control)
How it was run: as §2

morningglory [8] = experiment: Test A postemergence; assay type: in vivo, Ipomoea spp.
How it was run: as §2

corn [9] = experiment: Test A postemergence; assay type: in vivo, Zea mays
How it was run: as §2

wheat [10] = experiment: Test A preemergence; assay type: in vivo, Triticum aestivum; conditions: preemergence; for Wheat plant response rating (0 to 100 scale): 125 g ai/ha, visual injury approx. 10 days after treatment; for Wheat plant response rating: 500 g ai/ha, visual injury after approx. 10 days, 0 to 100 scale (0 no effect, 100 complete control)
How it was run: as §2

sedge, umbrella = experiment: Test B flood; assay type: in vivo, Cyperus difformis; conditions: 250 g ai/ha, visual rating on 0 to 100 scale (0 no effect, 100 complete control), 13 to 15 days
How it was run: as §1

crabgrass, large [11] = experiment: Test A postemergence; assay type: in vivo, Digitaria sanguinalis
How it was run: as §2

crabgrass, large [12] = experiment: Test A preemergence; assay type: in vivo, Digitaria sanguinalis; conditions: preemergence; for Crabgrass, Large plant response rating (0 to 100 scale): 125 g ai/ha, visual injury approx. 10 days after treatment; for Crabgrass, Large plant response rating: 500 g ai/ha, visual injury after approx. 10 days, 0 to 100 scale (0 no effect, 100 complete control)
How it was run: as §2

barnyardgrass [13] = experiment: Test A postemergence; assay type: in vivo, Echinochloa crus-galli
How it was run: as §2

wheat [14] = experiment: Test A postemergence; assay type: in vivo, Triticum aestivum
How it was run: as §2

velvetleaf [15] = experiment: Test A postemergence; assay type: in vivo, Abutilon theophrasti
How it was run: as §2

pigweed [16] = experiment: Test A postemergence; assay type: in vivo, Amaranthus retroflexus
How it was run: as §2

pigweed [17] = experiment: Test A preemergence; assay type: in vivo, Amaranthus retroflexus; conditions: preemergence; for Pigweed plant response rating (0 to 100 scale): 125 g ai/ha, visual injury approx. 10 days after treatment; for Pigweed plant response rating: 500 g ai/ha, visual injury after approx. 10 days, 0 to 100 scale (0 no effect, 100 complete control)
How it was run: as §2

[18] = Postemergence, 500 g ai/ha, 0 to 100 scale (0 no effect, 100 complete control)
[19] = postemergence, 125 g ai/ha, about 10 days, visual rating on 0 to 100 scale (0 no effect, 100 complete control)
[20] = 125 g ai/ha, visual injury, 0 to 100 scale, approx. 10 days
[21] = 500 g ai/ha, visual injury after approx. 10 days, 0 to 100 scale (0 no effect, 100 complete control)

Structure (SMILES) | Plant response rating, Barnyardgrass (barnyardgrass [1]) | Morningglory plant response rating (0 to 100 scale) (morningglory [2]) | Morningglory plant response rating (morningglory [2]) | Foxtail, Giant plant response rating (0 to 100 scale) (foxtail, giant [3]) | Foxtail, Giant plant response rating (foxtail, giant [3]) | Plant response rating, Ducksalad (ducksalad) | Foxtail, Giant plant response rating (foxtail, giant [4]; [18]) | Foxtail, Giant plant response rating (foxtail, giant [4]; [19]) | Barnyardgrass plant response rating (barnyardgrass [5]; [20]) | Barnyardgrass plant response rating (barnyardgrass [5]; [21]) | Corn plant response rating (0 to 100 scale) (corn [6]) | Corn plant response rating (corn [6]) | Plant response rating, Rice (rice) | Velvetleaf plant response rating (0 to 100 scale) (velvetleaf [7]) | Velvetleaf plant response rating (velvetleaf [7]) | Morningglory plant response rating (morningglory [8]; [18]) | Morningglory plant response rating (morningglory [8]; [19]) | Corn plant response rating (corn [9]; [18]) | Corn plant response rating (corn [9]; [19]) | Wheat plant response rating (0 to 100 scale) (wheat [10]) | further results
O=C(NC1CC1)c1cc(Br)n(Cc2cccc(C(F)(F)F)c2)n1 [Compound 160] | 0 | 0 | 0 | 0 | 60 | 0 | 30 | 20 | 0 | 10 | 0 | 0 | 0 | 0 | 10 | 20 | 0 | 20 | 0 | 0 | Wheat plant response rating (wheat [10]): 0; Plant response rating, Sedge, Umbrella (sedge, umbrella): 0; Crabgrass, Large plant response rating (crabgrass, large [11]; [18]): 40; Crabgrass, Large plant response rating (crabgrass, large [11]; [19]): 20; Crabgrass, Large plant response rating (0 to 100 scale) (crabgrass, large [12]): 50; Crabgrass, Large plant response rating (crabgrass, large [12]): 90; Barnyardgrass plant response rating (barnyardgrass [13]; [18]): 30; Barnyardgrass plant response rating (barnyardgrass [13]; [19]): 0; Wheat plant response rating (wheat [14]; [18]): 0; Wheat plant response rating (wheat [14]; [19]): 0; Velvetleaf plant response rating (velvetleaf [15]; [18]): 60; Velvetleaf plant response rating (velvetleaf [15]; [19]): 30; Pigweed plant response rating (pigweed [16]; [18]): 80; Pigweed plant response rating (pigweed [16]; [19]): 50; Pigweed plant response rating (0 to 100 scale) (pigweed [17]): 50; Pigweed plant response rating (pigweed [17]): 90
CCc1cc(C(=O)NC2CC2)nn1Cc1nc(C(F)(F)F)no1 [Compound 163] | 0 | 0 | 70 | 20 | 70 | 0 | 80 | 10 | 10 | 60 | 0 | 0 | 0 | 10 | 50 | 90 | 30 | 30 | 0 | 0 | Wheat plant response rating (wheat [10]): 10; Plant response rating, Sedge, Umbrella (sedge, umbrella): 0; Crabgrass, Large plant response rating (crabgrass, large [11]; [18]): 70; Crabgrass, Large plant response rating (crabgrass, large [11]; [19]): 20; Crabgrass, Large plant response rating (0 to 100 scale) (crabgrass, large [12]): 50; Crabgrass, Large plant response rating (crabgrass, large [12]): 100; Barnyardgrass plant response rating (barnyardgrass [13]; [18]): 40; Barnyardgrass plant response rating (barnyardgrass [13]; [19]): 10; Wheat plant response rating (wheat [14]; [18]): 0; Wheat plant response rating (wheat [14]; [19]): 0; Velvetleaf plant response rating (velvetleaf [15]; [18]): 80; Velvetleaf plant response rating (velvetleaf [15]; [19]): 50; Pigweed plant response rating (pigweed [16]; [18]): 90; Pigweed plant response rating (pigweed [16]; [19]): 50; Pigweed plant response rating (0 to 100 scale) (pigweed [17]): 30; Pigweed plant response rating (pigweed [17]): 100
CCCNC(=O)c1cc(CC)n(Cc2nc(C(F)(F)F)no2)n1 [Compound 164] | 0 | 0 | 80 | 10 | 70 | 0 | 40 | 10 | 10 | 80 | 0 | 50 | 0 | 0 | 10 | 70 | 50 | 40 | 10 | 0 | Wheat plant response rating (wheat [10]): 20; Plant response rating, Sedge, Umbrella (sedge, umbrella): 0; Crabgrass, Large plant response rating (crabgrass, large [11]; [18]): 60; Crabgrass, Large plant response rating (crabgrass, large [11]; [19]): 10; Crabgrass, Large plant response rating (0 to 100 scale) (crabgrass, large [12]): 80; Crabgrass, Large plant response rating (crabgrass, large [12]): 90; Barnyardgrass plant response rating (barnyardgrass [13]; [18]): 40; Barnyardgrass plant response rating (barnyardgrass [13]; [19]): 10; Wheat plant response rating (wheat [14]; [18]): 20; Wheat plant response rating (wheat [14]; [19]): 0; Velvetleaf plant response rating (velvetleaf [15]; [18]): 60; Velvetleaf plant response rating (velvetleaf [15]; [19]): 20; Pigweed plant response rating (pigweed [16]; [18]): 40; Pigweed plant response rating (pigweed [16]; [19]): 20; Pigweed plant response rating (0 to 100 scale) (pigweed [17]): 20; Pigweed plant response rating (pigweed [17]): 80
